Where two headings read alike, the source gives them in different places.
Legend:
mushroom tyrosinase [1] = molecular target: mushroom tyrosinase (Agaricus bisporus, UniProt C7FF04); assay: fluorescence-based tyrosinase assay with substrate PAP-AMC (monophenolase activity)
Protocol: Enzyme activity was measured using the fluorescent substrate PAP-AMC. […] Fluorescence spectroscopy was carried out on a Carey Eclipse spectrophotometer. Fluorescence intensity was measured at 6-second intervals in quartz cuvettes kept at 37° C. […] In vitro fluorescence assays using mushroom tyrosinase (Worthington Biochemicals) were performed in 50 mM sodium phosphate buffer, pH 7.4 with the fluorescent tyrosinase substrate, PAP-AMC (Biovision). Varying concentrations of inhibitors were used as indicated. Data represent the mean±SD of three independent experiments.
After 5 minute incubation, inhibitor was added as a solution in DMSO. After an additional 2 minute incubation, a DMSO solution of PAP-AMC (0.02 mL of 1 mM solution) was added and, after thoroughly mixing, the reaction was monitored by fluorescence (λ excitation=350 nm; λ emission=440 nm). Initial rates were calculated using the slope of the curve for the first ca. 10% of the reaction. The first 1 min of the reaction were not used owing to the usual induction period observed with tyrosinase. Inhibition assays were performed in triplicate trials. Non-linear regression and curve fitting were done using Prism software (Graphpad Inc). […] The experiment was performed in triplicate at pH 7.4 and data were plotted according to Lineweaver-Burk. Data represent the mean±SD of three independent experiments.

MNT-1 cells [2] = assay: viability assay in MNT-1 cell line; type: cell-based, human
Text: Where Acmpd is the absorbance value for the test compound, and Ap and An are the absorbance values of the positive and negative controls, respectively. FIG. 6 depicts the reduction in melanin biosynthesis in MNT-1 cells by chloroxine, relative to the positive control phenylthiourea (PTU), a tyrosinase inhibitor commonly used as a melanin synthesis blocker. Other hydroxyquinoline drugs caused different effects in the MNT-1 cell line. At higher concentrations, the iodo-substituted compounds clioquinol (3) and iodoquinol (4) were toxic, with decreased cell counts in the viability assay.

[3] = solubility in aqueous solution under the tyrosinase assay conditions; conditions: higher concentrations
MNT-1 cells [4] = assay: inhibition of melanin production in human melanoma MNT-1 cells; type: cell-based; conditions: 3 days
Protocol: To assess melanogenesis inhibition within cells, the human melanoma MNT-1 cell line (CRL-3450 from ATCC), cultured and divided according to the recommended protocol, was subjected to varying concentrations of chloroxine (2) and the other hydroxyquinoline drugs. The MNT-1 cell line was chosen because it was previously used successfully for quantifying melanin synthesis (Hah et al., 2012). Frozen stocks (3.8×10^6 cells) of cells were thawed in a 37° C. water bath, then plated into three 10-cm plates containing 10 mL of MDEM+10% fetal bovine serum and 100 μL of 100× Penicillin/Streptomycin. When the cells became confluent, medium was aspirated, cells were rinsed with sterile phosphate-buffered saline (PBS), and then treated with 1 mL of 0.25% trypsin with 0.02% EDTA at 37° C. for 3 min. When the cells became loose, 4 mL of medium was added to neutralize the trypsin. FIG. 5 depicts the inhibition of melanin production in MNT-1 cells by chloroxine, an inhibitor of tyrosinase, at concentrations indicated. Cells were incubated with chloroxine for 3 days and then harvested, with melanin quantified after cell lysis, measuring absorbance at 405 nm. […]
Where Acmpd is the absorbance value for the test compound, and Ap and An are the absorbance values of the positive and negative controls, respectively. […]

mushroom tyrosinase [5] = assay: assessment of reversibility: residual tyrosinase activity after ultrafiltration, with or without exogenous copper sulfate; type: biochemical; conditions: 5 μM inhibitor
Protocol: To gain further insight into the mode of action of the hydroxyquinoline drugs, residual enzyme activity was assessed after separation of the drug from the enzyme. This is generally done to assess whether the inhibitor acts in a reversible or irreversible manner. After incubation and measurement of tyrosinase activity, the drug nitroxoline (1) was separated from the reaction mixture in a Centricon centrifugal filter device, and enzymatic activity remeasured with fresh PAPAMC substrate.
When residual activity was measured after ultracentrifugation, less than 10% of the original activity remained (FIG. 4(b)). […]
To assess reversibility of enzyme inhibition, a reaction mixture containing 5 μM inhibitor was placed into Amicon Ultra centrifugal filters (10 K MWCO), concentrated at 4000 rpm for 10 minutes, followed by dilution with sodium phosphate buffer for a total of three cycles. If reconstitution of enzyme activity was being evaluated, exogenous copper sulfate was added to the remaining solution to a final concentration of 0.1 mM. Then fresh L-DOPA and PAP-AMC substrate was added and fluorescence change measured as previously described. […]

tyrosinase = conditions: cited from earlier work

Sequence of mushroom tyrosinase (Agaricus bisporus, UniProt C7FF04) (C7FF04 1-392): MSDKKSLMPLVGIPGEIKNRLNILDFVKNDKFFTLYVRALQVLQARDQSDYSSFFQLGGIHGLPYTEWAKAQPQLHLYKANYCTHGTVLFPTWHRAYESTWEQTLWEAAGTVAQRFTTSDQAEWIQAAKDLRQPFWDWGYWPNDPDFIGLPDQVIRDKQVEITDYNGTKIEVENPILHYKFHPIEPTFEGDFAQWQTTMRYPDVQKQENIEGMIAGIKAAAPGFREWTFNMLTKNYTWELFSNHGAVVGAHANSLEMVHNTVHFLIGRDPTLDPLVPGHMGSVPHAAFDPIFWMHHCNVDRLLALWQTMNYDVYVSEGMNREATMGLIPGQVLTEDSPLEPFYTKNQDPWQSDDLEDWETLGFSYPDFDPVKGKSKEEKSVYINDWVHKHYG

## Oc1c(I)cc(Cl)c2cccnc12 [clioquinol]
Mushroom tyrosinase [1]
  Ki: 367 µM
MNT-1 cells [2]
  toxicity (cell counts in the viability assay): toxic

## Oc1c(Cl)cc(Cl)c2cccnc12 [chloroxine]
[3]
  solubility in aqueous solution: did not show evidence of insolubility
MNT-1 cells [4]
  ability to block melanin production: dose-dependent
MNT-1 cells [4]; Homo sapiens, 72 h, absorbance at 405 nm, read-out: IC50 value for blocking melanin synthesis
  IC50: ~1.5 µM
Mushroom tyrosinase [1]
  Ki: ~12 µM
MNT-1 cells [2]
  toxicity (cell counts in the viability assay): not toxic

## O=[N+]([O-])c1ccc(O)c2ncccc12 [nitroxoline]
Mushroom tyrosinase [5]; after ultrafiltration, 0.1 mM copper sulfate
  enzyme activity after incubation of the concentrate with exogenous copper sulfate: substantial recovery of original enzyme activity
Mushroom tyrosinase [5]; no exogenous copper sulfate
  residual activity after ultracentrifugation, of the original activity: less than 10%
Mushroom tyrosinase [1]
  Ki: 0.9 µM
Mushroom tyrosinase [1]; varying substrate and inhibitor concentrations, pH 7.4
  type of enzyme inhibition (Lineweaver-Burk): competitive inhibitor
MNT-1 cells [2]
  toxicity (cell counts in the viability assay): not toxic

## iodoquinol
[3]
  solubility in aqueous solution: less soluble in aqueous solution
Mushroom tyrosinase [1]; monophenolase activity of tyrosinase
  inhibitory constant (in words): high micromolar
Mushroom tyrosinase [1]; mushroom tyrosinase, PAP-AMC substrate, pH 7.4
  Ki: 1290 µM
MNT-1 cells [2]; MNT-1 cells, higher concentrations
  toxicity (cell counts in the viability assay): toxic

## O=c1cc(CO)occ1O [kojic acid]
tyrosinase
  inhibition of tyrosinase: high micromolar
